Results on one compound are retold here after patent publication US20140148498A1, “METHODS AND COMPOSITIONS FOR THE TREATMENT OF MARFAN SYNDROME AND ASSOCIATED DISORDERS” (THE JOHNS HOPKINS UNIVERSITY, priority 2011, published 2014).

Entries after “also recorded” stand apart in the source; their conditions may differ.

Format in all cases: in vivo
The subject of one test is Fbn1^C1039G/+ mice. Nature of the test: Aortic root growth by echocardiography, 7 months of treatment (Examples 3-5). As to conditions: for Final absolute aortic root diameter: 7 months of treatment, mean +/- 2 SEM. As to the method:
(§1) A head-to-head comparison of ACEi versus ARBs was performed. Fbn1^C1039G/+ mice and WT littermates were treated with hemodynamically equivalent doses (FIG. 8) of either the ACEi enalapril (10 to 15 mg/kg of body weight per day) or the ARB losartan (40 to 60 mg/kg per day) (R. D. Patten et al., Clin. Sci 104, 109 (2003)), beginning at 8 weeks of age, and were assessed with serial echocardiograms. […] It is noteworthy that losartan reduced aortic root growth in Fbn1^C1039G/+ mice, but had no effect in WT littermates (P=0.27). […] Whether AT2 signaling is needed to achieve losartan's full therapeutic benefit was assessed. AT2KO:Fbn1^C1039G/+ mice were treated with losartan from 8 weeks of age and followed by serial echocardiography until they were killed at 9 months of age (FIG. 2C).
All mice were cared for under strict compliance with the Animal Care and Use Committee of the Johns Hopkins University School of Medicine. The Fbn1^C1039G/+ and AT2KO lines were maintained n a pure C57BL/6 background (backcrossed for greater than 9 generations), allowing for valid comparisons. In order to further accommodate the potential for temporal- or background-specified variation, all comparisons were made between contemporary littermates when possible. The AT21C0 mice were obtained as a generous gift from Dr. Inagami (T. Ichiki et al., Nature 377, 748 (1995)). The Agtr2 gene resides on the X chromosome and therefore we used either male mice carrying the mutated allele (who are hemizygous) or homozygous females, both of which have been previously shown to be functionally null for the AT2 receptor (T. Ichiki et al., Nature 377, 748 (1995)). Mice were sacrificed with an inhalation overdose of halothane (Sigma-Aldrich, St. Louis). Mice underwent immediate laparotomy, descending abdominal aortic transection, and PBS (pH 7.4) was infused through the right and left ventricles to flush out the blood. Mice that were analyzed for Western Blot analysis had their proximal ascending aortas (root to right brachiocephalic trunk) immediately dissected out, flash frozen in liquid nitrogen and stored at −80d until further processing. Mice that were analyzed for aortic histology had latex injected under low pressure into the left ventricular apex until it was visible in the descending abdominal aorta. Mice that were analyzed for lung histology had their trachea intubated with a 20-gauge blunted needle, and 0.5% agar was infused under a low and constant pressure to gradually inflate the lungs. The trachea was then tied-off using vicryl and the needle was removed. Mice were fixed for 24 hours in 10% buffered formalin, after which the heart, aorta and lungs were removed and stored in 70% ethanol.
Mice were started on medication at 8 weeks of age and continued for 7 months. Losartan was dissolved in drinking water and filtered to reach a concentration of 0.6 g/L, giving an estimated daily dose of 40-60 mg/kg/day. Enalapril was dissolved in drinking water and filtered to reach a final concentration of 0.15 g/L, giving an estimated daily dose of 10-15 mg/kg/day. […] Spironolactone was dissolved in drinking water and filtered to give an estimated dose of 20 mg/kg/day, a dose previously shown to have in-vivo phenotypic benefit in cardiovascular disease states (S. Sakurabayashi-Kitade et al., Atherosclerosis 206, 54 (2009)). Placebo-treated animals received regular drinking water. Blood pressures were analyzed by taking 20 tail cuff blood pressures per day over 5 days in each mouse to habituate the mice to the tail cuff pressure system, and the blood pressures obtained on the last day were averaged. At least 4 mice for each treatment group were analyzed.
Nair hair removal cream was used on all mice the day prior to echocardiograms. All echocardiograms were performed on awake, unsedated mice using the Visualsonics Vevo 660 V1.3.6 imaging system and a 30 MHz transducer. Mice were imaged at baseline, 1 month after treatment and then every two months until the time of sacrifice. […]

The next test concerns WT mice. Put plainly: Aortic root growth by echocardiography, 7 months of treatment, WT littermates. As to the method: as §1, with “AT2KO:Fbn1^C1039G/+ mice were treated with losartan from 8 weeks of age and followed by serial echocardiography until they were killed at 9 months of age (FIG. 2C).” left out
(§2) All mice were cared for under strict compliance with the Animal Care and Use Committee of the Johns Hopkins University School of Medicine. […] Mice that were analyzed for Western Blot analysis had their proximal ascending aortas (root to right brachiocephalic trunk) immediately dissected out, flash frozen in liquid nitrogen and stored at −80d until further processing. Mice that were analyzed for aortic histology had latex injected under low pressure into the left ventricular apex until it was visible in the descending abdominal aorta. Mice that were analyzed for lung histology had their trachea intubated with a 20-gauge blunted needle, and 0.5% agar was infused under a low and constant pressure to gradually inflate the lungs. […]

For a further test, the system named is AT2KO:Fbn1^C1039G/+ mice. Put plainly: Aortic root growth by echocardiography, 7 months of treatment, MFS mice lacking AT2. The method, then: as §1
as §2, with “Medicine. The Fbn1^C1039G/+ and AT2KO lines were maintained n a pure C57BL/6 background (backcrossed for greater than 9 generations), allowing for valid comparisons.” for “Medicine.”
Mice were started on medication at 8 weeks of age and continued for 7 months. […] Blood pressures were analyzed by taking 20 tail cuff blood pressures per day over 5 days in each mouse to habituate the mice to the tail cuff pressure system, and the blood pressures obtained on the last day were averaged. At least 4 mice for each treatment group were analyzed. […]

Regarding `CCCCc1nc(Cl)c(CO)n1Cc1ccc(-c2ccccc2-c2nn[nH]n2)cc1` [losartan], the “Final absolute aortic root diameter” value is on record as 1.96+/−0.09 mm in the test with Fbn1^C1039G/+ mice (FIG. 2B); 1.96+/−0.09 mm in the test with Fbn1^C1039G/+ mice (FIG. 2C); 1.77+/−0.15 mm with WT mice (WT mice, 7 months of treatment, FIG. 2B, mean +/- 2 SEM); 2.06+/−0.07 mm in the test on AT2KO:Fbn1^C1039G/+ mice (AT2KO:Fbn1^C1039G/+ mice, 7 months of treatment, FIG. 2C, mean +/- 2 SEM). In addition, the “Aortic root growth over 7 months of treatment” value with Fbn1^C1039G/+ mice (versus placebo, drug in drinking water from 8 weeks of age) is listed as “significant regression in growth; also recorded: regression in aortic size”; in the test on WT mice (WT littermates) it was “had no effect”; with AT2KO:Fbn1^C1039G/+ mice (AT2KO:Fbn1^C1039G/+ mice) it was “modest reduction in aortic root growth; also recorded: diminished effectiveness”. For the same compound, the “Decrease in aortic root growth in treated AT2KO:Fbn1^C1039G/+ mice relative to that seen in Fbn1^C1039G/+ animals that expressed AT2” value in the test on AT2KO:Fbn1^C1039G/+ mice (losartan from 8 weeks to 9 months of age, P<0.001) turned out to be 40%.
